Measurements reported in patent publication US10723711B2, “1,1,1-trifluoro-3-hydroxypropan-2-yl carbamate derivatives and 1,1,1-trifluoro-4-hydroxybutan-2-yl carbamate derivatives as MAGL inhibitors” (PFIZER INC., priority 2015, dated 2020).
Read-outs that look alike come from different tables or passages of the source.

Columns and labels:
Format in all cases: biochemical
[1] = molecular target: T1, human recombinant Monoacylglycerol Lipase (Homo sapiens, UniProt Q99685); assay: MAGL inhibition enzymatic assay, fluorogenic substrate 7-HCA, IC50 at T=0 min or after 30 minute incubation (T=30 min); conditions: geometric mean of 2-4 determinations unless otherwise indicated
T1 sequence (Q99685 1-303): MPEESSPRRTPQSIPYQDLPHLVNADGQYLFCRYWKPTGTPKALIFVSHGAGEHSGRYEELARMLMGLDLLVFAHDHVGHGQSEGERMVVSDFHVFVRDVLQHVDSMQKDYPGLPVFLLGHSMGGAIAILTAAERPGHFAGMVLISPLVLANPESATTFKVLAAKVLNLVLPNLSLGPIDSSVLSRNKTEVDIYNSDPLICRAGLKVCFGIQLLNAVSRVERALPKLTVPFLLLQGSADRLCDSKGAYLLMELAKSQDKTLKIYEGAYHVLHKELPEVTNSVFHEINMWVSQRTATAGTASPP
Description: An equal volume of 7-HCA in assay buffer with 10% DMSO was added either immediately (T=0 min) or after a 30 minute incubation (T=30 min) to initiate the reaction. […] After these dilutions, the final concentration of the test compound ranged from 3 μM to 0.03 nM. […] IC50 values were generated based on a four parameter fit model using ABASE software from IDBS.

[2] = molecular target: T1, human recombinant Monoacylglycerol Lipase; assay: MAGL inactivation, enzyme progress curves, kinact/KI; conditions: from enzyme progress curves, T = 0 min protocol; geometric mean of 2-4 determinations unless otherwise indicated
In short: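 Human recombinant MAGL ([…]) with compound, 7-HCA substrate (final 5 μM) added immediately (T=0 min), in pH 7.4 HEPES buffer with 0.1% Triton X-100 and 25% glycerin. Fluorescence (Ex/Em 340/465) was read every minute over 60 min, giving progress curves at decreasing compound concentrations (final 3 μM to 0.03 nM).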

[3] = molecular target: T2, human recombinant FAAH (Homo sapiens, UniProt O00519); assay: FAAH inhibition enzymatic assay, fluorescent substrate Arachidonoyl-AMC, 30 minute incubation; conditions: T = 30 min (30 minute incubation); geometric mean of 2-4 determinations unless otherwise indicated
T2 construct: purchased Cayman 10010183
T2 sequence (O00519 1-579): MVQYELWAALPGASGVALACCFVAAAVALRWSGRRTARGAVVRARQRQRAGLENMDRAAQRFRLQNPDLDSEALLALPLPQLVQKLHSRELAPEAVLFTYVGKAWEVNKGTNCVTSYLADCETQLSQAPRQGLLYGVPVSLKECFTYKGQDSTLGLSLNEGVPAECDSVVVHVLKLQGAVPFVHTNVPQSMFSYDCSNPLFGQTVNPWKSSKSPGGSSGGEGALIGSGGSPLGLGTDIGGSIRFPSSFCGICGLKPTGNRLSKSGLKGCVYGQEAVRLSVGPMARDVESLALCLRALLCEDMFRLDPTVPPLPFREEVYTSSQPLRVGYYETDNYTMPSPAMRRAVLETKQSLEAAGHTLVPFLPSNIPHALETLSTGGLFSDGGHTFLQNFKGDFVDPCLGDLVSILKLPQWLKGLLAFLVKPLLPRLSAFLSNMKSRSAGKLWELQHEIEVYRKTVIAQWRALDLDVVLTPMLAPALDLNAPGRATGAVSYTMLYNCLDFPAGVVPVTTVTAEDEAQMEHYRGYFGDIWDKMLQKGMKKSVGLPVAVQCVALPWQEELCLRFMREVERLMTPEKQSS

[4] = T = 0 min (substrate added immediately), read-out: MAGL (T = 0 min) IC50
[5] = T = 30 min (30 minute incubation), read-out: MAGL (T = 30 min) IC50

Row | SMILES | IC50 [1, 4] [nM] | IC50 [1, 5] [nM] | MAGL kinact/KI [2] | IC50 [3] [µM]
1 | O=C(O[C@H](CO)C(F)(F)F)N1CCC2(CCCN(S(=O)(=O)c3ccc(F)cc3)C2)CC1 [Example 12, (2R)-1,1,1-Trifluoro-3-hydroxypropan-2-yl 2-[(4-fluorophenyl)sulfonyl]-2,9-diazaspiro[5.5]undecane-9-carboxylate] | 188 | 17 | 1801 1/s per M | > 30
2 | O=C(O)C(F)(F)F.O=C(O[C@H](CO)C(F)(F)F)N1CCC(Oc2nccc3ccccc23)CC1 [Example 26, (2R)-1,1,1-Trifluoro-3-hydroxypropan-2-yl 4-(isoquinolin-1-yloxy)piperidine-1-carboxylate, trifluoroacetic acid salt] | 31 | 2 | 16949 1/s per M | 7.73
3 | O=C(OC(C(F)(F)F)C(F)(F)CO)N1C[C@@H]2[C@H](C1)[C@H]2c1ccn(-c2ccc(F)cc2)n1 (stereo partly shown) [Example 39] | 34 | 2 | 9893 1/s per M | 6.01
4 | O=C(O[C@H](CO)C(F)(F)F)N1CCC(CNS(=O)(=O)c2ccc(F)cc2)CC1 [Example 47] | 174 | 17 | 5046 1/s per M | > 30
5 | Cc1cc(S(=O)(=O)N2CCOC3(CCN(C(=O)O[C@H](CO)C(F)(F)F)CC3)C2)ccc1F [Example 51] | 43 | 4 | 10340 1/s per M | > 30
6 | O=C(O[C@H](CO)C(F)(F)F)N1CCC2(CC1)CN(S(=O)(=O)c1ccc(F)c(F)c1)CCO2 [Example 52] | 56 | 5 | 7262 1/s per M | > 30
7 | O=C(O[C@H](CO)C(F)(F)F)N1CCC(Oc2ccc(C(F)(F)F)cn2)CC1 [Example 53] | 53 | 6 | 6900 1/s per M | > 30
8 | CN(CC1CCN(C(=O)O[C@H](CO)C(F)(F)F)CC1)S(=O)(=O)c1ccc(F)cc1 [Example 62] | 67 | 7 | 216 1/s per M | > 30
9 | O=C(O[C@H](CO)C(F)(F)F)N1CCC(Oc2ncc(C(F)(F)F)cc2Cl)CC1 [Example 63] | 7 | 1 | 7347 1/s per M | 3.01
10 | CC(C)c1cccc(S(=O)(=O)N2CCOC3(CCN(C(=O)O[C@H](CO)C(F)(F)F)CC3)C2)c1 [Example 66] | 3 | 0.2 | 430364 1/s per M | 7.87
11 | C#Cc1ccc(S(=O)(=O)N2CCOC3(CCN(C(=O)O[C@H](CO)C(F)(F)F)CC3)C2)cc1 [Example 68] | 56 | 6 | 16586 1/s per M | > 30
12 | Cc1ccc(S(=O)(=O)N2CCOC3(CCN(C(=O)O[C@H](CO)C(F)(F)F)CC3)C2)cc1F [Example 73] | 5 | 1 | 96515 1/s per M | > 30
13 | CCc1cccc(S(=O)(=O)N2CCOC3(CCN(C(=O)O[C@H](CO)C(F)(F)F)CC3)C2)c1 [Example 77] | 5 | 1 | 403739 1/s per M | 5.95
14 | CC(C)Oc1ccc(S(=O)(=O)N2CCOC3(CCN(C(=O)O[C@H](CO)C(F)(F)F)CC3)C2)cc1 [Example 78] | 6 | 1 | 16865 1/s per M | 2.58
15 | C#Cc1cccc(S(=O)(=O)N2CCOC3(CCN(C(=O)O[C@H](CO)C(F)(F)F)CC3)C2)c1 [Example 79] | 7 | 1 | 26513 1/s per M | 10
16 | C#Cc1ccc(-n2ccc(C3CCN(C(=O)O[C@H](CO)C(F)(F)F)CC3)n2)cc1 [Example 80] | 7 | 1 | 126124 1/s per M | 7.92
17 | C#Cc1ccc(-n2ccc([C@H]3[C@@H]4CN(C(=O)O[C@H](CO)C(F)(F)F)C[C@@H]43)n2)cc1 [Example 81] | 8 | 1 | 45138 1/s per M | 7.54
18 | O=C(O[C@H](CO)C(F)(F)F)N1CCC2(CC1)CN(S(=O)(=O)c1cccc(Cl)c1)CCO2 [Example 83] | 19 | 2 | 21997^d 1/s per M | > 30
19 | O=C(O[C@H](CO)C(F)(F)F)N1CCC2(CC1)CN(S(=O)(=O)c1ccccc1F)CCO2 [Example 84] | 26 | 2 | 49166 1/s per M | 19.2
20 | CCN([C@H]1COC2(CCN(C(=O)O[C@H](CO)C(F)(F)F)CC2)C1)S(=O)(=O)c1ccccc1 [Example 92, (2R)-1,1,1-Trifluoro-3-hydroxypropan-2-yl (3R)-3-[ethyl(phenylsulfonyl)amino]-1-oxa-8-azaspiro[4.5]decane-8-carboxylate] | 6 | 1 | 215500 1/s per M | > 30
21 | CN([C@H]1COC2(CCN(C(=O)O[C@H](CO)C(F)(F)F)CC2)C1)S(=O)(=O)C1CC1 [Example 93, (2R)-1,1,1-Trifluoro-3-hydroxypropan-2-yl (3R)-3-[(cyclopropylsulfonyl)(methyl)amino]-1-oxa-8-azaspiro[4.5]decane-8-carboxylate] | 318 | 29 | 3282 1/s per M | > 30
22 | CN([C@@H]1COC2(CCN(C(=O)O[C@H](CO)C(F)(F)F)CC2)C1)S(=O)(=O)C1CC1 [Example 94, (2R)-1,1,1-Trifluoro-3-hydroxypropan-2-yl (3S)-3-[(cyclopropylsulfonyl)(methyl)amino]-1-oxa-8-azaspiro[4.5]decane-8-carboxylate] | 316 | 27 | 3764 1/s per M | > 30
23 | O=C(O[C@H](CO)C(F)(F)F)N1CCC2(CC1)CCN(C(=O)c1ccccc1F)C2 [Example 98, (2R)-1,1,1-Trifluoro-3-hydroxypropan-2-yl 2-(2-fluorobenzoyl)-2,8-diazaspiro[4.5]decane-8-carboxylate] | 71 | 7 | 4933 1/s per M | > 30
24 | O=C(O[C@H](CO)C(F)(F)F)N1CCC2(CC1)CCN(S(=O)(=O)c1ccccc1)C2 [Example 105, (2R)-1,1,1-Trifluoro-3-hydroxypropan-2-yl 2-(phenylsulfonyl)-2,8-diazaspiro[4.5]decane-8-carboxylate] | 22 | 2 | 59993 1/s per M | 9.76
25 | CN([C@H]1COC2(CCN(C(=O)O[C@H](CO)C(F)(F)F)CC2)C1)S(=O)(=O)CC1CC1 [Example 106, (2R)-1,1,1-Trifluoro-3-hydroxypropan-2-yl (3R)-3-{[(cyclopropylmethyl)sulfonyl](methyl)amino}-1-oxa-8-azaspiro[4.5]decane-8-carboxylate] | 238 | 20 | 2856 1/s per M | > 30
26 | CC(C)N([C@H]1COC2(CCN(C(=O)O[C@H](CO)C(F)(F)F)CC2)C1)S(=O)(=O)c1ccccc1 [Example 107] | 10 | 1 | 127771 1/s per M | > 30
27 | O=C(O[C@H](CO)C(F)(F)F)N1CCC2(CC1)CCN(C(=O)C1CCCC1)C2 [Example 124] | 92 | 10 | 6720 1/s per M | > 30
28 | O=C(O[C@H](CO)C(F)(F)F)N1CCC2(CC1)CCN(C(=O)c1nccs1)C2 [Example 125] | 65 | 7 | 5464 1/s per M | > 30
